# System: 996289-038-R-J1-PDC complex spheroid viability
# Experiment: Anticancer human tumor 996289-038-R-J1-PDC patient-derived colon adenocarcinoma cell line growth inhibition [CLK]
# Details: for IC50: curve of first compound; for viability, T/C: stronger effect = lower value
# How it was run: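 Patient-derived tumor cells grown as complex spheroids with HUVEC endothelial cells and mesenchymal stem cells, treated with drug combinations. Concentrations descend in half-log steps from near clinical Cmax, or from 10 microM if Cmax unknown.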
# [1] = second compound 0.0316 µM, first compound 0.0316 µM
# [2] = second compound 0.0316 µM, first compound 0.1 µM
# [3] = second compound 0.1 µM, first compound 0.0316 µM
# [4] = second compound 0.1 µM, first compound 0.1 µM
# [5] = second compound 0.316 µM, first compound 0.0316 µM
# [6] = second compound 0.316 µM, first compound 0.1 µM
# [7] = second compound 1 µM, first compound 0.0316 µM
# [8] = second compound 1 µM, first compound 0.1 µM
# [9] = second compound 3.16 µM, first compound 0.0316 µM
# [10] = second compound 3.16 µM, first compound 0.1 µM
# [11] = second compound 10 µM, first compound 0.0316 µM
# [12] = second compound 10 µM, first compound 0.1 µM
# [13] = second compound 0.0316 µM, first compound 0.316 µM
# [14] = second compound 0.0316 µM, first compound 1 µM
# [15] = second compound 0.0316 µM, first compound 3.16 µM
# [16] = second compound 0.0316 µM, first compound 10 µM
# [17] = second compound 0.1 µM, first compound 0.316 µM
# [18] = second compound 0.1 µM, first compound 1 µM
# [19] = second compound 0.1 µM, first compound 3.16 µM
# [20] = second compound 0.1 µM, first compound 10 µM
# [21] = second compound 0.316 µM, first compound 0.316 µM
# [22] = second compound 0.316 µM, first compound 1 µM
# [23] = second compound 0.316 µM, first compound 3.16 µM
# [24] = second compound 0.316 µM, first compound 10 µM
# [25] = second compound 1 µM, first compound 0.316 µM
# [26] = second compound 1 µM, first compound 1 µM
# [27] = second compound 1 µM, first compound 3.16 µM
# [28] = second compound 1 µM, first compound 10 µM
# [29] = second compound 3.16 µM, first compound 0.316 µM
# [30] = second compound 3.16 µM, first compound 1 µM
# [31] = second compound 3.16 µM, first compound 3.16 µM
# [32] = second compound 3.16 µM, first compound 10 µM
# [33] = second compound 10 µM, first compound 0.316 µM
# [34] = second compound 10 µM, first compound 1 µM
# [35] = second compound 10 µM, first compound 3.16 µM
# [36] = second compound 10 µM, first compound 10 µM
# 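Also: spheroids exposed to the agents for 7 days before readout.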
compound,measurement,setting,value
Cn1ncnc1[C@H]1c2n[nH]c(=O)c3cc(F)cc(c23)N[C@@H]1c1ccc(F)cc1 + CNC(=O)c1ccc(Nc2nc(OC3CCCC3)c3c(-c4ccc5nc(C)oc5c4)c[nH]c3n2)c(OC)c1,IC50,second compound 0.0316 µM,> 100 nM
same,IC50,second compound 0.1 µM,> 100 nM
same,IC50,second compound 0.316 µM,> 100 nM
same,IC50,second compound 1 µM,> 100 nM
same,IC50,second compound 3.16 µM,> 100 nM
same,IC50,second compound 10 µM,> 100 nM
same,"viability, T/C","second compound 0.0316 µM, first compound 0.000316 µM",127%
same,"viability, T/C","second compound 0.0316 µM, first compound 0.001 µM",114%
same,"viability, T/C","second compound 0.0316 µM, first compound 0.00316 µM",118%
same,"viability, T/C","second compound 0.0316 µM, first compound 0.01 µM",124%
same,"viability, T/C",[1],133%
same,"viability, T/C",[2],108%
same,"viability, T/C","second compound 0.1 µM, first compound 0.000316 µM",127%
same,"viability, T/C","second compound 0.1 µM, first compound 0.001 µM",124%
same,"viability, T/C","second compound 0.1 µM, first compound 0.00316 µM",128%
same,"viability, T/C","second compound 0.1 µM, first compound 0.01 µM",134%
same,"viability, T/C",[3],124%
same,"viability, T/C",[4],105%
same,"viability, T/C","second compound 0.316 µM, first compound 0.000316 µM",86.6%
same,"viability, T/C","second compound 0.316 µM, first compound 0.001 µM",80.5%
same,"viability, T/C","second compound 0.316 µM, first compound 0.00316 µM",81.6%
same,"viability, T/C","second compound 0.316 µM, first compound 0.01 µM",78.8%
same,"viability, T/C",[5],80.9%
same,"viability, T/C",[6],74.9%
same,"viability, T/C","second compound 1 µM, first compound 0.000316 µM",74.8%
same,"viability, T/C","second compound 1 µM, first compound 0.001 µM",67.4%
same,"viability, T/C","second compound 1 µM, first compound 0.00316 µM",65.7%
same,"viability, T/C","second compound 1 µM, first compound 0.01 µM",64%
same,"viability, T/C",[7],65.5%
same,"viability, T/C",[8],58.6%
same,"viability, T/C","second compound 3.16 µM, first compound 0.000316 µM",63.7%
same,"viability, T/C","second compound 3.16 µM, first compound 0.001 µM",59.3%
same,"viability, T/C","second compound 3.16 µM, first compound 0.00316 µM",59%
same,"viability, T/C","second compound 3.16 µM, first compound 0.01 µM",58.5%
same,"viability, T/C",[9],63.7%
same,"viability, T/C",[10],55%
same,"viability, T/C","second compound 10 µM, first compound 0.000316 µM",66.1%
same,"viability, T/C","second compound 10 µM, first compound 0.001 µM",60.4%
same,"viability, T/C","second compound 10 µM, first compound 0.00316 µM",59.7%
same,"viability, T/C","second compound 10 µM, first compound 0.01 µM",63%
same,"viability, T/C",[11],63%
same,"viability, T/C",[12],55.7%
Nc1ccn(C2OC(CO)C(O)C2(F)F)c(=O)n1 (stereo unspecified) + CNC(=O)c1ccc(Nc2nc(OC3CCCC3)c3c(-c4ccc5nc(C)oc5c4)c[nH]c3n2)c(OC)c1,IC50,second compound 0.0316 µM,> 10000 nM
same,IC50,second compound 0.1 µM,> 10000 nM
same,IC50,second compound 0.316 µM,> 10000 nM
same,IC50,second compound 1 µM,1230 nM
same,IC50,second compound 3.16 µM,674 nM
same,IC50,second compound 10 µM,639 nM
same,"viability, T/C",[1],93.1%
same,"viability, T/C",[2],82.7%
same,"viability, T/C",[13],67.1%
same,"viability, T/C",[14],70%
same,"viability, T/C",[15],65.1%
same,"viability, T/C",[16],56.4%
same,"viability, T/C",[3],108%
same,"viability, T/C",[4],85.3%
same,"viability, T/C",[17],67.9%
same,"viability, T/C",[18],68%
same,"viability, T/C",[19],66.7%
same,"viability, T/C",[20],54.9%
same,"viability, T/C",[5],79.8%
same,"viability, T/C",[6],70.5%
same,"viability, T/C",[21],65.4%
same,"viability, T/C",[22],56.1%
same,"viability, T/C",[23],55.3%
same,"viability, T/C",[24],52.2%
same,"viability, T/C",[7],68.8%
same,"viability, T/C",[8],63.4%
same,"viability, T/C",[25],54.6%
same,"viability, T/C",[26],50%
same,"viability, T/C",[27],48.9%
same,"viability, T/C",[28],41.4%
same,"viability, T/C",[9],65.3%
same,"viability, T/C",[10],54.2%
same,"viability, T/C",[29],52.6%
same,"viability, T/C",[30],49.3%
same,"viability, T/C",[31],47.2%
same,"viability, T/C",[32],36.9%
same,"viability, T/C",[11],61.5%
same,"viability, T/C",[12],57.6%
same,"viability, T/C",[33],48.4%
same,"viability, T/C",[34],49.4%
same,"viability, T/C",[35],46.9%
same,"viability, T/C",[36],35.2%
O=c1[nH]cc(F)c(=O)[nH]1 + CNC(=O)c1ccc(Nc2nc(OC3CCCC3)c3c(-c4ccc5nc(C)oc5c4)c[nH]c3n2)c(OC)c1,IC50,second compound 0.0316 µM,> 10000 nM
same,IC50,second compound 0.1 µM,> 10000 nM
same,IC50,second compound 0.316 µM,> 10000 nM
same,IC50,second compound 1 µM,3470 nM
same,IC50,second compound 3.16 µM,3470 nM
same,IC50,second compound 10 µM,1600 nM
same,"viability, T/C",[1],108%
same,"viability, T/C",[2],111%
same,"viability, T/C",[13],87.5%
same,"viability, T/C",[14],86.6%
same,"viability, T/C",[15],86.1%
same,"viability, T/C",[16],77.8%
same,"viability, T/C",[3],122%
same,"viability, T/C",[4],105%
same,"viability, T/C",[17],86.1%
same,"viability, T/C",[18],82.1%
same,"viability, T/C",[19],81.3%
same,"viability, T/C",[20],74.5%
same,"viability, T/C",[5],80.8%
same,"viability, T/C",[6],77%
same,"viability, T/C",[21],72.5%
same,"viability, T/C",[22],69.6%
same,"viability, T/C",[23],63.8%
same,"viability, T/C",[24],59.1%
same,"viability, T/C",[7],62.9%
same,"viability, T/C",[8],61.2%
same,"viability, T/C",[25],59.5%
same,"viability, T/C",[26],53.6%
same,"viability, T/C",[27],50.3%
same,"viability, T/C",[28],45.5%
same,"viability, T/C",[9],61.9%
same,"viability, T/C",[10],60%
same,"viability, T/C",[29],55.8%
same,"viability, T/C",[30],51%
same,"viability, T/C",[31],53.3%
same,"viability, T/C",[32],46.1%
same,"viability, T/C",[11],60.4%
same,"viability, T/C",[12],53.9%
same,"viability, T/C",[33],59.2%
same,"viability, T/C",[34],48%
same,"viability, T/C",[35],47.5%
same,"viability, T/C",[36],46.7%

# Reference: PubChem BioAssay AID2060600 (Molecular Pharmacology Branch, DTP, NCI, 2025)
